Consider eight compounds from US8242275B2, “Bicyclic pyrazole compounds as antibacterial agents” (Janssen Pharmaceutica NV, priority 2005, dated 2012).

In brackets after ≈: the same amount, converted by molar mass.

The target of one assay is T1, E. coli topoisomerase IV (Escherichia coli, UniProt P0AFI2+P20083).
T1 construct: purchased John Innes Enterprises Ltd. (John Innes Centre, UK)
As to the kind of experiment: Topoisomerase IV inhibition assay (relaxation). It counts as biochemical. The following applies: E. coli topoisomerase IV relaxation, visual inspection of gels; read-out: Topoisomerase IV IC50 (converted). As for the experimental part: Inhibition of the relaxation activity of E. coli topoisomerase IV was determined using enzyme, buffers and substrates received from John Innes Enterprises Ltd. (John Innes Centre, UK). The reactions were performed according to the manufacturer's directions, with the following modifications.
DNA relaxation reactions were carried out in a total reaction volume of 20 μL, containing 300 ng of supercoiled pBR322, 40 mM HEPES-KOH (pH 7.6), 100 mM potassium glutamate, 10 mM Mg(OAc)2, 10 mM DTT, 4 μg/mL tRNA, 2 mM ATP, and 50 μg/mL BSA. Compounds, diluted in 10% DMSO, were added to the reaction mixture to reach a final concentration of 0.5% DMSO. Enzyme was diluted to 0.45 unit/μL in a solution of 40 mM HEPES-KOH (pH 7.6), 150 mM potassium glutamate, 1 mM DTT, 1 mM EDTA, and 40% glycerol. Diluted enzyme (0.9 unit) was added to each reaction.
The reactions were incubated at 37° C. for 45 min. The reactions were then cooled to 0° C. followed by addition of 3 μL of 40% glycerol, 100 mM Tris-HCl (pH 7.5), 50 mM EDTA, 0.5% SDS and 0.1% bromophenol blue. Samples were separated on 1.0% agarose gels. Gels were stained with Ethidium bromide and photographed with a Stratagene Eagle Eye II.

A further assay concerns the target T2, E. coli DNA gyrase (Escherichia coli, UniProt P0AES4+P0AES6).
T2 construct: purchased John Innes Enterprises Ltd. (John Innes Centre, UK)
As to the kind of experiment: DNA gyrase inhibition assay (supercoiling). The following applies: E. coli DNA gyrase supercoiling, visual inspection of gels; read-out: DNA Gyrase IC50 (converted). The format is biochemical. An outline of the steps:
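Agarose-gel (1.0%, ethidium-stained) readout of supercoiled versus relaxed pBR322 after 30 min at 37° C. Each reaction held 250 ng DNA, 0.2 unit enzyme, 1 mM ATP, 4 mM MgCl2, 24 mM KCl in 35 mM Tris-HCl pH 7.5, and compound at 0.5% DMSO final.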

The test system of a further assay is S. pneumoniae ATCC49619. As to the kind of experiment: In vitro antibacterial activity (MIC assay), broth microdilution. The format is cell-based. The following applies: Streptococcus pneumoniae, ATCC49619; read-out: S. pneumoniae ATCC49619 MIC. The method, boiled down: (§1)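 Bacteria at roughly 5×10^5 CFU/mL final were grown 16–24 h at 35° C in wells holding 2-fold serial dilutions (11 points) of compound prepared in 100% DMSO, following NCCLS M7-A5. MIC, in μg/mL, is the concentration that stops visible growth relative to untreated wells.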

In the next assay the test system is S. aureus ATCC13709. The assay is described as above. It counts as cell-based. The settings on record: Staphylococcus aureus, ATCC13709; read-out: S. aureus ATCC13709 MIC. The method, boiled down:
as §1

Assay [1] has as its system E. coli KL-16 (GSC strain 4245). Described as above. The format is cell-based. The following applies: Escherichia coli. The method, boiled down:
as §1

In general, IC50 refers to the concentration that inhibits the measured activity by half. What is called MIC is the least concentration at which growth counts as inhibited.

T1 sequence (P0AFI2 whole entry): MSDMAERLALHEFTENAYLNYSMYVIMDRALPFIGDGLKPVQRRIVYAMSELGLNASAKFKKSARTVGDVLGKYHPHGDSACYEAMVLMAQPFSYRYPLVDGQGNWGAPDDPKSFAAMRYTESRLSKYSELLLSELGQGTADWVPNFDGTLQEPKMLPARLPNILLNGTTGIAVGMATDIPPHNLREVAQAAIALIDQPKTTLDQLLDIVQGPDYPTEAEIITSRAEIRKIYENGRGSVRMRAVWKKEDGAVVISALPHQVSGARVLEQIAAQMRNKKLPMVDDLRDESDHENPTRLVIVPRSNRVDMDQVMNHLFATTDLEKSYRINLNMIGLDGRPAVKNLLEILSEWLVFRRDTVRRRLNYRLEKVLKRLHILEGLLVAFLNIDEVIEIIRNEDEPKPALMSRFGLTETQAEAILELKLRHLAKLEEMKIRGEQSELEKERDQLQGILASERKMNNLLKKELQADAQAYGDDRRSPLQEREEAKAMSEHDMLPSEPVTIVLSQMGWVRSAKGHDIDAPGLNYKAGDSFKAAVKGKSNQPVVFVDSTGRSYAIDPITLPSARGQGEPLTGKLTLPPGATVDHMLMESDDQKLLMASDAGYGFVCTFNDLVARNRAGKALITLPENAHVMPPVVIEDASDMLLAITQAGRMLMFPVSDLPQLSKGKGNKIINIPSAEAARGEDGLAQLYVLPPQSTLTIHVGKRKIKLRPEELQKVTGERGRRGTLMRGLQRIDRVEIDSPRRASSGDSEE
T1 sequence (P20083 whole entry): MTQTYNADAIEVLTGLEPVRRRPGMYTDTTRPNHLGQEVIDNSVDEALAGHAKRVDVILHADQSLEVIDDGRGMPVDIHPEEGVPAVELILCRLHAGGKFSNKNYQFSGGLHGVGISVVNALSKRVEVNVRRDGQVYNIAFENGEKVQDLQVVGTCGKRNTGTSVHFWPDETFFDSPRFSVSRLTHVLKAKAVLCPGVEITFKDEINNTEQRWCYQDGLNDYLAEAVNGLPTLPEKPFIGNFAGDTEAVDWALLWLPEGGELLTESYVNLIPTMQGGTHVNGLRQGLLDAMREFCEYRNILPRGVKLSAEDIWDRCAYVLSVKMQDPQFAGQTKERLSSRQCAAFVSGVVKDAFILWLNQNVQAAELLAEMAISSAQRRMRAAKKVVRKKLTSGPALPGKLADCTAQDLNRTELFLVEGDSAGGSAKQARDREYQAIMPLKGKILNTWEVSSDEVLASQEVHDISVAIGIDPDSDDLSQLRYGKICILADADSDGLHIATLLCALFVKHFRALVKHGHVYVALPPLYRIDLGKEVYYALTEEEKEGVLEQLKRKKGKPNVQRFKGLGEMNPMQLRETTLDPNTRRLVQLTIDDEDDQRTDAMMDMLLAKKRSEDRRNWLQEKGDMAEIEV
T2 sequence (P0AES4 whole entry, one chain of several): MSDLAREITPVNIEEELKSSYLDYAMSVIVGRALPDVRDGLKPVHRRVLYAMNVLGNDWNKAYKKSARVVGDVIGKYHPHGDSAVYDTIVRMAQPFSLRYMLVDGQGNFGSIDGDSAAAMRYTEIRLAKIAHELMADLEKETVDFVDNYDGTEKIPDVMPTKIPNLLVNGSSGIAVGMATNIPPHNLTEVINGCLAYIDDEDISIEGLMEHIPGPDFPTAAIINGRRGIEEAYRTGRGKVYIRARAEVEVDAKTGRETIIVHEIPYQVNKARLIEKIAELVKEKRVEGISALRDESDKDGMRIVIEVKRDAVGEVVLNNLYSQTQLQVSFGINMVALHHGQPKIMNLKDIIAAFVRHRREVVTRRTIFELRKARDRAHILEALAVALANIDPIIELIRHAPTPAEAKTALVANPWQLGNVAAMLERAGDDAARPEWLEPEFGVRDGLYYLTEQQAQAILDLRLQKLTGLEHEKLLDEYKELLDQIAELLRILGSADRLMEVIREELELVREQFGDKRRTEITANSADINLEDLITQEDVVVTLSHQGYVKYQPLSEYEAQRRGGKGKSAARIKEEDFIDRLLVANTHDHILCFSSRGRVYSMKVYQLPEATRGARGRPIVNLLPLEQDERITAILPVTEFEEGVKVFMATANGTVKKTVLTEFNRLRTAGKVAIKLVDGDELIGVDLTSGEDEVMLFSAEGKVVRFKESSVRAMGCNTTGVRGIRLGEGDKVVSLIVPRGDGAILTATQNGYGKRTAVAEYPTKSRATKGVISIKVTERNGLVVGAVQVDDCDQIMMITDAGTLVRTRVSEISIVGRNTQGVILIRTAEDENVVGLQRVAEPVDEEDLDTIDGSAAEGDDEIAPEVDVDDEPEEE

Turning to `COc1ccc2nccc(-n3cc4c(n3)CCC(NCC(=O)Nc3cc(F)cc(F)c3)C4)c2n1` (stereo not shown) [Example 58, N-(3,5-Difluoro-phenyl)-2-[2-(6-methoxy-[1,5]naphthyridin-4-yl)-4,5,6,7-tetrahydro-2H-indazol-5-ylamino]-acetamide], the IC50 on E. coli topoisomerase IV was 0.0344 µM; on E. coli DNA gyrase it was 2.15 µM. Also, the MIC stood at 4 mg/L (≈ 8.61 µM) in the assay on S. pneumoniae ATCC49619, 0.25 mg/L (≈ 0.538 µM) with S. aureus ATCC13709 and 16 mg/L (≈ 34.4 µM) in assay [1].
As to `COc1ccc2nccc(-n3cc4c(n3)CCN(CC(=O)c3ccc5c(c3)NC(=O)CO5)C4)c2c1` [Example 64, 6-{2-[2-(6-Methoxy-quinolin-4-yl)-2,4,6,7-tetrahydro-pyrazolo[4,3-c]pyridin-5-yl]-acetyl}-4H-benzo[1,4]oxazin-3-one], the IC50 was 0.532 µM on E. coli topoisomerase IV and > 8.52 µM at E. coli DNA gyrase. The MIC worked out at 128 mg/L (≈ 273 µM) in the assay on S. pneumoniae ATCC49619, 4 mg/L (≈ 8.52 µM) with S. aureus ATCC13709 and 64 mg/L (≈ 136 µM) in assay [1].
Take `COc1ccc2nccc(-n3cc4c(n3)CCC(NC(=O)c3cnc5ccccc5n3)C4)c2n1` (stereo not shown) [Example 70, Quinoxaline-2-carboxylic acid [2-(6-methoxy-[1,5]naphthyridin-4-yl)-4,5,6,7-tetrahydro-2H-indazol-5-yl]-amide]: the IC50 on E. coli topoisomerase IV is > 2.21 µM; on E. coli DNA gyrase, > 70.9 µM. The MIC was 32 mg/L (≈ 70.9 µM) in the assay with S. pneumoniae ATCC49619, 2 mg/L (≈ 4.43 µM) in the assay on S. aureus ATCC13709 and > 128 mg/L in assay [1].
On to `COc1ccc2nccc(-n3cc4c(n3)CCC(NC(=O)C3(c5ccc(Cl)cc5)CCCC3)C4)c2c1` (stereo not shown) [Example 80, 1-(4-Chloro-phenyl)-cyclopentanecarboxylic acid [2-(6-methoxy-quinolin-4-yl)-4,5,6,7-tetrahydro-2H-indazol-5-yl]-amide], for which the half-maximal inhibitory concentration (IC50) was > 2 µM on E. coli topoisomerase IV and > 31.9 µM at E. coli DNA gyrase. Moreover, the MIC is 128 mg/L (≈ 255 µM) in the assay with S. pneumoniae ATCC49619, 8 mg/L (≈ 16 µM) with S. aureus ATCC13709 and > 128 mg/L in assay [1].
`COc1ccc2nccc(-n3cc4c(n3)CCC(NCC(=O)Nc3ccc5c(c3)NC(=O)CS5)C4)c2n1` (stereo not shown) [Example 83, 2-[2-(6-Methoxy-[1,5]naphthyridin-4-yl)-4,5,6,7-tetrahydro-2H-indazol-5-ylamino]-N-(3-oxo-3,4-dihydro-2H-benzo[1,4]thiazin-6-yl)-acetamide]: the 50% inhibitory concentration (IC50) at E. coli topoisomerase IV was 0.485 µM; at E. coli DNA gyrase, < 0.485 µM. Further, the MIC was 32 mg/L (≈ 62.1 µM) with S. pneumoniae ATCC49619, 2 mg/L (≈ 3.88 µM) with S. aureus ATCC13709 and > 128 mg/L in assay [1].
For the compound `COc1ccc2nccc(-n3cc4c(n3)CCC(NC/C=C/c3ccccc3[N+](=O)[O-])C4)c2n1` (stereo not shown) [Example 89, [2-(6-Methoxy-[1,5]naphthyridin-4-yl)-4,5,6,7-tetrahydro-2H-indazol-5-yl]-[3-(2-nitro-phenyl)-allyl]-amine], the IC50 on E. coli topoisomerase IV was 0.0329 µM; at E. coli DNA gyrase, 0.274 µM. Moreover, the MIC amounted to 2 mg/L (≈ 4.38 µM) in the assay on S. pneumoniae ATCC49619, 2 mg/L (≈ 4.38 µM) with S. aureus ATCC13709 and 16 mg/L (≈ 35 µM) in assay [1].
As to `COc1ccc2nccc(-n3cc4c(n3)CCC(NCc3ccc5c(c3)NCCS5)C4)c2c1` (stereo not shown) [Example 102], the IC50 at E. coli topoisomerase IV was 0.137 µM; at E. coli DNA gyrase, 1.09 µM. Besides, the MIC turned out to be 0.5 mg/L (≈ 1.09 µM) in the assay with S. pneumoniae ATCC49619, 0.5 mg/L (≈ 1.09 µM) with S. aureus ATCC13709 and 8 mg/L (≈ 17.5 µM) in assay [1].
In the case of `COc1ccc2nccc(-n3cc4c(n3)CCC(NCc3cc5c(cc3Cl)OCCO5)C4)c2c1` (stereo not shown) [Example 103, (7-Chloro-2,3-dihydro-benzo[1,4]dioxin-6-ylmethyl)-[2-(6-methoxy-quinolin-4-yl)-4,5,6,7-tetrahydro-2H-indazol-5-yl]-amine], the IC50 at E. coli topoisomerase IV is 0.524 µM; on E. coli DNA gyrase, 4.19 µM. In addition, the MIC in the assay on S. pneumoniae ATCC49619 was 4 mg/L (≈ 8.39 µM); in the assay with S. aureus ATCC13709 it was 0.5 mg/L (≈ 1.05 µM); in assay [1], 32 mg/L (≈ 67.1 µM).
